“And” between values parts separate entries of the source, which are not always exact repeats. Identical values can stand only once.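 Results reflect a 48-hour exposure of cells in 96-well plates to compound at five concentrations. Abbreviation: GI50, concentration required for 50% inhibition of growth. TGI: total growth inhibition.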
Tests used:
Assay in all cases: inhibition of tumour cell growth, NCI panel, 48 h
SR leukemia = system: SR leukemia
HCC-2998 colon = system: HCC-2998 colon
HCT-116 colon = system: HCT-116 colon
MDA-MB-435 = system: MDA-MB-435
COLO 205 colon = system: COLO 205 colon
IGROV1 ovarian = system: IGROV1 ovarian
786-0 renal = system: 786-0 renal
PC-3 prostate = system: PC-3 prostate

| Compound | GI50 (SR leukemia) | TGI (SR leukemia) | GI50 (HCC-2998 colon) [µM] | TGI (HCC-2998 colon) | GI50 (HCT-116 colon) [µM] | TGI (HCT-116 colon) | GI50 (MDA-MB-435) [µM] | TGI (MDA-MB-435) | GI50 (COLO 205 colon) | TGI (COLO 205 colon) | GI50 (IGROV1 ovarian) | TGI (IGROV1 ovarian) | GI50 (786-0 renal) [µM] | TGI (786-0 renal) | GI50 (PC-3 prostate) [µM] | TGI (PC-3 prostate) [µM] |
| --- | --- | --- | --- | --- | --- | --- | --- | --- | --- | --- | --- | --- | --- | --- | --- | --- |
| Cc1ccc(NC(=O)c2ccc(NC3=C(Cl)C(=O)N(Cc4ccccc4)C3=O)cc2)cc1Cl | 0.864 µM | 2.98 µM | 2.36 | 14.2 µM | 3.08 | 13.3 µM | 24 | > 100 µM | 13.5 µM | > 100 µM | 0.49 µM | 2.64 µM | 3.35 | 15.9 µM | 12.5 | 25.1 |
| COC(=O)C1=Nc2ccc(F)cc2/C1=C/c1sc(=S)[nH]c1O | 0.0476 µM | > 100 µM | 0.41 | 12.1 µM | 0.0468 | 16.7 µM | 0.0233 | 0.0605 µM | 0.311 µM | 1.24 µM | 0.275 µM | 14.9 µM | 0.122 | 15.1 µM | 0.128 | 26.3 |
| CC1(C)N=C(N)N=C(N)N1c1ccc(OCCCCNC(=O)Nc2cccc(S(=O)(=O)F)c2)c(Cl)c1 | 1.02 µM | > 100 µM | 5.22 | > 100 µM | 0.594 | > 100 µM | 0.642 | > 100 µM | 3.78 µM | > 100 µM | 0.581 µM | > 100 µM | 2.75 | > 100 µM | 0.0995 | > 100 |
| CC/C(=C(/c1ccc(/C=C/C(=O)O)cc1)c1ccc2[nH]ncc2c1)c1ccc(F)cc1Cl | 4.03 µM | 29.4 µM | 13.8 | 29.8 µM | 7.45 | 20.8 µM | 2.76 | 8.38 µM | 15.5 µM | 35.3 µM | 15.8 µM | 40 µM | 7.83 | 21.1 µM | 7.95 | 21.6 |
| CN(C)CCS(=O)(=O)Nc1cc(-c2ccc3ncnc(Nc4ccc(F)c(Cl)c4)c3c2)cnc1Cl | 0.809 µM |  | 1.05 | 3.04 µM | 0.829 | 6.43 µM | 0.713 | 3.04 µM | 0.748 µM | 2.22 µM | 0.0859 µM | 0.38 µM | 1.34 | > 100 µM | 0.536 | > 100 |
| CCOC(=O)C1=CSC2=NC3=C(CCC/C3=C\c3cc(OC)c(OC)c(OC)c3)C(c3cc(OC)c(OC)c(OC)c3)N12 (stereo unspecified) |  |  |  |  |  |  |  |  | 3.05 µM | > 100 µM |  |  | > 100 | > 100 µM | 0.751 | > 100 |
| CCC1=C(c2ccc(OC)cc2)CC[C@]2(CCNC2=O)[C@@H]1C |  | 76.6 µM |  | > 65.3 µM |  | 52.6 µM |  | 47.2 µM |  | 19.9 µM |  | > 100 µM |  | > 100 µM |  | > 77 |
| N=C(N)c1ccc(OCCCCCOc2ccc(C(=N)N)cc2)cc1 | 13.3 µM and 13.6 µM and > 100 µM | 44.4 µM and 58.5 µM and > 100 µM | 7.15 | 40.4 µM and 28.3 µM | 4.59 | > 50 µM and 37.8 µM and > 100 µM | 3.99 | 13.4 µM and 23.2 µM and 42.9 µM | 2.18 µM and 5.19 µM and 11.9 µM | 8.57 µM and 18.4 µM and 29.1 µM | 10.2 µM and 13 µM and 35.5 µM | > 50 µM and 27 µM and > 100 µM | 12 | > 50 µM and 27.1 µM and 31.8 µM | 6.92 | > 100 |
| O=C(Nc1ccc(Cl)c(C(F)(F)F)c1)C(=O)c1c(O)c2ccccc2oc1=O |  | > 100 µM |  | > 100 µM |  | > 100 µM |  | > 100 µM |  |  |  | > 100 µM |  | > 100 µM |  | > 100 |
| CC(C)c1cc(C(C)C)c(Cl)c(Cl)c1O (tested in a mixture with another compound) |  | 63.4 µM |  | 64.5 µM |  | > 100 µM |  | 46.1 µM |  | 39.8 µM |  | 81.1 µM |  | > 100 µM |  | 40.7 |
| Nc1ccn([C@@H]2S[C@H](CO)[C@@H](O)[C@@H]2F)c(=O)n1 | 0.0575 µM | > 100 µM | 3.03 | > 100 µM | 0.0393 | > 100 µM | 0.18 | > 100 µM | 0.407 µM | > 100 µM | 0.74 µM | > 100 µM | 0.109 |  |  |  |
| O=C(CN(/C=C/C(=O)C(F)(F)F)c1ccccc1)c1ccc(F)cc1 |  |  | 17.8 | 41.6 µM | 25.3 | 88.1 µM | 27.1 | 72.1 µM | 25 µM | 58.3 µM | 21.9 µM | 79.2 µM | 41.1 | > 100 µM | 29 | > 100 |
| O=CC(O)C(O)C(OC1OC(CO)C(O)C(O)C1O)C(O)CO (stereo unspecified) (tested in a mixture with another compound) |  | 33.1 µM |  |  |  | > 100 µM |  | > 100 µM |  | > 100 µM |  | 71.9 µM |  | > 100 µM |  | > 100 |
| CCN(CC)C(=O)CCCCCn1c2ccccc2c2c3c(c4c5ccccc5[nH]c4c21)C(=O)N(O)C3=O | 1.56 µM | 13.6 µM | 4.72 | 27.1 µM | 3.75 | 28.1 µM | 4.04 | 40 µM | 1.97 µM | 4.23 µM | 2.41 µM | 6.87 µM | 2.12 | 5.04 µM | 3.19 | 52.9 |
| Nc1n[nH]c2ccc([C@@H]3Nc4c(F)cc5[nH]ncc5c4[C@H]4C5CCC(C5)[C@@H]34)cc12 (stereo partly specified) | 0.0779 µM | 15.1 µM | 0.39 | 22.2 µM | 0.293 | 6.22 µM | 0.0327 | 0.161 µM | 0.337 µM | 1.67 µM | 0.391 µM | > 46.2 µM | 0.74 | 25 µM | 0.331 | > 46.2 |
| CN1CC[C@]23c4c5ccc(O)c4OC2c2[nH]ncc2C[C@H]3[C@H]1C5 (stereo partly specified) |  | > 100 µM |  | > 100 µM |  | > 100 µM |  | > 100 µM |  | > 100 µM |  | > 100 µM |  | > 100 µM |  | > 100 |
| Cn1c(CC(O)c2nc3ccccc3n2C)nc2ccccc21 (stereo unspecified) |  | > 100 µM |  | > 100 µM |  | > 34.9 µM |  | > 44.4 µM |  | > 35.8 µM |  | > 40.6 µM |  | > 68.6 µM |  | > 58.8 |
